Test results: US11019821B2, “Fused bicyclic heterocycle derivatives as pesticides” (Bayer Aktiengesellschaft, priority 2018, dated 2021)

Legend:
Type in all cases: in vivo
[1] = test system: Ctenocephalides felis; assay: Ctenocephalides felis oral test; settings: application rate 100 ppm in citrated cattle blood, after 2 days, adult cat fleas
Protocol: (§1) Solvent: dimethyl sulfoxide
To produce a suitable active ingredient formulation, 10 mg of active ingredient are mixed with 0.5 ml of dimethyl sulfoxide. Dilution with citrated cattle blood gives the desired concentration.
About 20 unfed adult cat fleas (Ctenocephalides felis) are placed into a chamber which is closed at the top and bottom with gauze. A metal cylinder whose bottom end is closed with parafilm is placed onto the chamber. The cylinder contains the blood/active ingredient formulation, which can be imbibed by the fleas through the parafilm membrane.
After 2 days, the kill in % is determined. 100% means that all of the fleas have been killed; 0% means that none of the fleas have been killed.

[2] = test system: Lucilia cuprina; assay: Lucilia cuprina test; settings: application rate 100 ppm, after 2 days, L1 larvae
Protocol: as §1
(§2) To produce a suitable active ingredient formulation, 10 mg of active ingredient are mixed with 0.5 ml of dimethyl sulfoxide, and the concentrate is diluted with water to the desired concentration.
About 20 L1 larvae of the Australian sheep blowfly (Lucilia cuprina) are transferred into a test vessel containing minced horsemeat and the active ingredient formulation of the desired concentration.
After 2 days, the kill in % is determined. 100% means that all the larvae have been killed; 0% means that no larvae have been killed.

[3] = test system: Musca domestica; assay: Musca domestica test; settings: application rate 100 ppm, after 2 days, adult houseflies
Protocol: as §1, §2
Vessels containing a sponge treated with sugar solution and the active ingredient formulation of the desired concentration are populated with 10 adult houseflies (Musca domestica).
After 2 days, the kill in % is determined. 100% means that all of the flies have been killed; 0% means that none of the flies have been killed.

[4] = test system: Myzus persicae; assay: Myzus persicae oral test; settings: 120 h, application rate 4 ppm, after 5 days, read-out: efficacy (aphids killed)
Protocol: To produce a suitable active ingredient formulation, 1 part by weight of active ingredient is dissolved with the stated parts by weight of solvent and made up to the desired concentration with water.
50 μl of the active ingredient preparation are transferred into microtitre plates and made up to a final volume of 200 μl with 150 μl of IPL41 insect medium (33%+15% sugar). Subselog Puently, the plates are sealed with parafilm, which a mixed population of green peach aphids (Myzus persicae) within a second microtitre plate is able to puncture and imbibe the solution.
(§3) After 5 days, the efficacy in % is determined. 100% means that all the aphids have been killed; 0% means that no aphids have been killed.

[5] = test system: Myzus persicae; assay: Myzus persicae spray test; settings: foliar, 120 h, application rate 100 g/ha, after 5 days, Chinese cabbage leaf discs, read-out: efficacy (aphids killed)
Protocol: To produce a suitable active ingredient formulation, 1 part by weight of active ingredient is dissolved with the specified parts by weight of solvent and made up to the desired concentration with water containing an emulsifier concentration of 1000 ppm. To produce further test concentrations, the formulation is diluted with emulsifier-containing water.
Discs of Chinese cabbage leaves (Brassica pekinensis) infested by all stages of the green peach aphid (Myzus persicae) are sprayed with an active ingredient formulation of the desired concentration.
as §3

[6] = test system: Ctenocephalides felis; assay: Ctenocephalides felis in vitro contact test with adult cat fleas; settings: application rate 5 μg/cm^2 (=500 g/ha), after 48 h
Protocol: (§4) For the coating of the test tubes, 9 mg of active ingredient are first dissolved in 1 ml of acetone p.a. and then diluted to the desired concentration with acetone p.a. 250 μl of the solution are distributed homogeneously on the inner walls and the base of a 25 ml glass tube by turning and rocking on an orbital shaker (rocking rotation at 30 rpm for 2 h). With 900 ppm of active ingredient solution and internal surface area 44.7 cm^2, given homogeneous distribution, an area-based dose of 5 μg/cm^2 is achieved.
After the solvent has evaporated off, the tubes are populated with 5-10 adult cat fleas (Ctenocephalides felis), sealed with a perforated plastic lid and incubated in a horizontal position at room temperature and ambient humidity. After 48 h, efficacy is determined. To this end, the tubes are stood upright and the fleas are knocked to the base of the tube. Fleas which remain motionless at the base or move in an uncoordinated manner are considered to be dead or moribund.
100% efficacy means that all the fleas were dead or moribund. 0% efficacy means that no fleas were harmed.

[7] = test system: Rhipicephalus sanguineus; assay: Rhipicephalus sanguineus in vitro contact test with adult brown dog ticks; settings: application rate 5 μg/cm^2 (=500 g/ha), after 48 h
Protocol: as §4, with “walls and base of” for “walls and the base of”, “25 ml test tube by” for “25 ml glass tube by”, “900 ppm active ingredient” for “900 ppm of active ingredient”, “internal surface 44.7 cm^2,” for “internal surface area 44.7 cm^2,”
After the solvent has evaporated off, the tubes are populated with 5-10 adult dog ticks (Rhipicephalus sanguineus), sealed with a perforated plastic lid and incubated in a horizontal position in the dark at room temperature and ambient humidity. After 48 h, efficacy is determined. To this end, the ticks are knocked to the floor of the tube and incubated on a hotplate at 45-50° C. for not more than 5 min. Ticks which remain motionless on the floor or move in such an uncoordinated manner that they are unable to deliberately avoid the heat by climbing upwards are considered to be dead or moribund.
100% efficacy means that all the ticks were dead or moribund. 0% efficacy means that none of the ticks had been harmed.

[8] = test system: Boophilus microplus; assay: Boophilus microplus injection test; settings: application rate 20 μg/animal, assessed after 7 days, engorged adult female cattle ticks
Protocol: as §1
To produce a suitable active ingredient formulation, 10 mg of active ingredient are mixed with 0.5 ml of solvent and the concentrate is diluted to the desired concentration with solvent.
1 μl of the active ingredient solution is injected into the abdomen of 5 engorged adult female cattle ticks (Boophilus microplus). The animals are transferred into dishes and kept in a climate-controlled room.
Efficacy is assessed after 7 days by laying of fertile eggs. Eggs which are not visibly fertile are stored in a climate-controlled cabinet until the larvae hatch after about 42 days. An efficacy of 100% means that none of the ticks has laid any fertile eggs; 0% means that all the eggs are fertile.

Structure (SMILES) | efficacy (kill in %) [1] | efficacy (kill in %) [2] | efficacy (kill in %) [3] | pest or weed control at 4 ppm [4] | pest or weed control at 100 g/ha [5] | efficacy (fleas dead or moribund) [6] | efficacy (ticks dead or moribund) [7] | efficacy (no laying of fertile eggs) [8]
CCS(=O)(=O)c1c(-c2nc3cc(C(F)(F)F)ncc3n2C)nn2c1CCCC2 [Example I-02] | 90% | 100% | 80% | 100% | 90% | – | – | –
CCS(=O)(=O)c1c(-c2nc3cc(C(F)(F)F)ncc3n2C)nn2c1CC(C)CC2 (stereo not drawn) [Example I-05] | 95% | – | 80% | 100% | 100% | 100% | 100% | 100%
